Entries after “also recorded” stand apart in the source; their conditions may differ.
Key:
L. dispar PBP 1 = assay: Pheromone-binding protein (PBP) ligand binding assay, PBP1; set-up: species or system Lymantria dispar; conditions: tested as single compound; means ± S.E., 4 replicates
Protocol: (§1) A. The protein and ligand are incubated in buffer overnight. B. For half of the incubation mixture, the free ligand (L) is separated from the protein-bound ligand (P.L) by size-exclusion chromatography on P2 Gel (BioRad, exclusion limit 2000 Da). The protein elutes from the small column bed, with its ligand bound (see Examples and […] et al. 2000; Staddon and Everton 1980), while the free ligand is retained on the column ([…] et al. 2000). C. […] The extract from the filtrate (B) contains the protein-bound ligand and the extract from the incubation mixture (A) contains all the ligand (bound and free) present in the aqueous phase. The extracts are analyzed by GC-MS, to obtain values for total ligand in solution (L+P.L) and for protein-bound ligand (P.L). These can then be used to calculate % bound (Table 3). These assays were performed as described in FIG. 3 and as follows: L. dispar PBP 1 or PBP 2 was incubated with the test compound or mini-library. The PBP and the ligand(s) (L) were left to equilibrate (eq 2) overnight. The non-bound ligand was then separated from the protein-bound material (PBP.L) by size-exclusion chromatography. By determining the total ligand in solution at equilibrium (eq. 3) and the protein-bound ligand, it is possible to estimate the percentage of ligand bound to the protein at equilibrium (eq. 4). […] This binding assay has been validated extensively in previous studies ([…] et al. 2000). The components of each mini-library separated cleanly by GC, so it was possible to monitor binding of individual components. PBP+L⇄PBP·L (eq. 2) [L]tot=[L]+[PBP·L] (eq. 3) % bound=100×[PBP·L]/[L]tot (eq. 4) Results: The members of each mini-library separated cleanly by GC, therefore it was possible to monitor binding of individual members to PBP1 or PBP2, the two known PBPs in the gypsy moth, by extraction from the aqueous incubation mixture, followed by GC analysis of the extract (FIG. 3).

L. dispar PBP 2 = assay: Pheromone-binding protein (PBP) ligand binding assay, PBP2; set-up: species or system Lymantria dispar; conditions: tested as single compound; means ± S.E., 4 replicates
Protocol: as §1

[1] = system: male gypsy moth antenna response to pheromone (+)-1; assay: Decay of the long-term inhibitory effect and dose responses, EAG (Example 6); set-up: species or system Lymantria dispar; conditions: 100 ng; maximal value, on average
Protocol: LTI dependence on the delay time of the pure (+)-1 puffs (v-vii, Example 6) after the mixed (+)-1/inhibitor puff. The amount of (+)-1 was varied from 10 ng to 1 μg and the amount of inhibitor was constant at 100 μg. FIG. 7B. Dose response of LTI with respect to variable (+)-1 responses and time responses for the strongest long-term inhibition of EAG responses towards (+)-1. FIG. 7C. Dose response of pure pheromone (+)-1. FIG. 7D.
This recovery usually took 5-7 s. The short-term inhibition STI(compound, dose) was calculated for each mixed plume. The long-term inhibition LTI(dose, time) was calculated for each dose and for each of the three puffs following the mixed pheromone-inhibitor plume.

[2] = system: third instar gypsy moth larvae; assay: Feeding deterrence, oak leaf disc choice test (Example 13); type: in vivo, Lymantria dispar
Protocol: Gypsy moth larvae were tested at the Canadian Forest Service, for feeding deterrence. A selected set of compounds, based on the results with the electroantennogram testing and also based on feeding deterrence assay results with the cabbage looper, T. ni. The experiment was done with third instar larvae and oak leaf discs. Larvae were left to choose between a treated and a control disc for 17.5 hours. Measurements of leaf areas were used to calculate the amount of leaf consumed from control (C) and treated (T) leaves. Feeding deterrence was calculated using the following formula: ((C−T)/(C+T))*100, and expressed in percent, where C=area of control leaf consumed and T=area of treated leaf consumed.

[3] = system: male gypsy moth antennae response to pheromone (+)-1 with plant odors; assay: Effect on mixed pheromone/plant odorant stimulus, EAG (Example 8, second objective); set-up: species or system Lymantria dispar
Protocol: A second objective for this experiment was to determine whether the oak volatiles, methyl eugenol and 1-hexanol, can enhance the antennal response to (+)-1 and whether the mixed pheromone/plant odorant stimulus can be inhibited by compound 3c{2,3} or DEET. The puff order was: i) air, ii) pure (+)-1 (100 ng), iii) (+)-1 (100 ng) and plant odorant (1 μg for methyl eugenol and 100 μg for 1-hexanol), iv) (+)-1 and plant odorant as in iii+antagonist (100 μg), v) same as in iii. Depolarizations were corrected for the air response as in Eq. 1 and the short-term effects were calculated for puff iii relative to puff ii, and for puff iv relative to puff ii. Long-term effects were calculated for puff v relative to puff iii (for LTI of the mixed pheromone/plant odorant plume) and for puff v relative to puff ii (to determine whether long-term effects of the plant odorant and of the antagonist cancel).

[4] = system: male gypsy moth antenna response to pheromone (+)-1; assay: EAG short-term (STI) and long-term (LTI) inhibition of pheromone signaling (Example 5); set-up: species or system Lymantria dispar
Method in brief: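 Excised male gypsy moth antenna in saline pH 6.8 under purified air (300 mL/min); 0.3 s puffs: air, (+)-1 100 ng, (+)-1 plus compound 1, 10, 100 μg per cartridge, then (+)-1 alone. STI: mixed-puff air-corrected depolarization loss versus first pheromone puff; LTI: final pheromone-puff loss.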

[5] = system: male gypsy moth antenna response to odorants other than (+)-1; assay: Long-term inhibition of responses to other pheromone and host plant odorants, EAG (Example 8, first objective); set-up: species or system Lymantria dispar; conditions: for long-term activity (%) / short-term activity (%): antagonist 100 μg
Protocol: To determine whether the long-term inhibitory effects of 3c{2,3} and DEET are specific to (+)-1 or also apply to other odorants, compound 3c{2,3} and DEET were tested further with other odorants: (−)-1, racemic 1, dispar alkene, methyl eugenol and 1-hexanol.
These included (−)-1, racemic 1, dispar alkene (the alkene corresponding to the carbon framework of 1), methyl eugenol (a characteristic oak wood odorant) and 1-hexanol (a green leaf volatile, shown previously to be detected by gypsy moth antennae). For the pure odorant puffs, (−)-1 and racemic 1 were administered at 100 ng/cartridge, the alkene, methyl eugenol was administered at 1 μg/cartridge and 1-hexanol was administered at 100 μg/cartridge. The antagonists were both administered at 100 μg/cartridge, mixed with the appropriate dose of the odorant. The puff order was: i) air, ii) pure odorant, iii) odorant+antagonist, iv) pure odorant. All puffs were corrected for the air response as in Eq. 1. STI values were obtained from the depolarization […]. LTI values were obtained by comparing the depolarization of puff iv relative to that of puff ii.

gypsy moths = assay: Field test of trap catches, Northern Japan 2009 (Example 12); type: in vivo, Lymantria dispar; conditions: (+)-dis 40 μg/lure & compound 40 mg/lure, vs (+)-dis alone
Protocol: Ten traps were used per treatment. The solvent used to deliver the compounds onto the lures was doubly distilled hexane. The hexane was evaporated prior to packing and shipping the lures. The field test was conducted in 10 replicates in Northern Japan. The test was conducted Aug. 16-18, 2009, in an area where gypsy moths are known to live. […] Traps were arranged randomized, placed on platforms. The experiment was conducted blind. The lures contained 40 μg disparlure/lure, a low dose for a field trial (typically 100 μg-1 mg are used). For each treatment, 10 traps were deployed.

male gypsy moth antenna = assay: Coupled gas chromatographic-electroantennographic detection (GC-EAD); set-up: species or system Lymantria dispar; conditions: EAD peak size and shape (sharp/broad)
Method in brief: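 GC column effluent split between flame ionization detector and an excised male moth antenna held between saline-filled glass capillary electrodes, tip removed, in a warm air stream. Antennal potentials assigned to compounds by matching retention times with FID peaks.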

[6] = plant synergist 1-hexanol 100 μg
[7] = plant synergist methyl eugenol 1 μg
[8] = odorant racemic disparlure 100 ng

SMILES: CCCCCCCCCC[C@@H]1O[C@@H]1CCCCC(C)C (relative stereo) [(+)-disparlure, cis-(7R,8S)-7,8-epoxy-2-methyloctadecane, reference compound]
- PBP1 (% bound) (L. dispar PBP 1): 54 ± 16%
- PBP2 (% bound) (L. dispar PBP 2): 71 ± 23%
- depolarization with pure pheromone [1]: 20 mV

SMILES: CCN(CC)C(=O)c1cccc(C)c1 [DEET, reference compound]
- Feeding Deterrence (%) ([2]; third instar larvae, oak leaf discs, choice between treated and control disc for 17.5 hours, ((C−T)/(C+T))*100): 47.76%
- short-term effect with plant synergist + antagonist ([3]; (+)-1 100 ng + 1-hexanol 100 μg + antagonist 100 μg): −339 ± 206 (5)
- short-term effect with plant synergist + antagonist ([3]; (+)-1 100 ng + methyl eugenol 1 μg + antagonist 100 μg): −210 ± 120 (5)
- long-term effect on (+)-1 response [3, 6]: −53 ± 48 (5)
- long-term effect on the mixed (+)-1/plant odor plumes [3, 6]: −24 ± 19 (5)
- long-term effect on (+)-1 response [3, 7]: 27 ± 29 (5)
- long-term effect on the mixed (+)-1/plant odor plumes [3, 7]: 30 ± 27 (5)
- long-term inhibition (LTI) activity (in words) [4]: strongest long-term inhibitors; also recorded: strong LTI activity
- Activity (%): short-term inhibition (STI) ([4]; mixed plume (+)-1 100 ng + compound 1 μg, negative = enhancement, mean ± S.E.): −165 ± 51 (5) %
- Activity (%): short-term inhibition (STI) ([4]; mixed plume (+)-1 100 ng + compound 10 μg, negative = enhancement, mean ± S.E.): −214 ± 48 (5) %
- Activity (%): short-term inhibition (STI) ([4]; mixed plume (+)-1 100 ng + compound 100 μg (puff v), negative = enhancement, mean ± S.E.): −203±42%
- inhibition of the recovery phase (RI, R^1 activity) ([4]; mixed puff with highest dose (puff v)): 9±9%
- Activity (%): long-term inhibition (LTI) ([4]; pure (+)-1 100 ng plume following mixed plume with 100 μg compound, mean ± S.E.): 78 ± 6 (5) %
- long-term activity (%) ([5]; odorant 1-hexanol 100 μg): 7 ± 18%
- short-term activity (%) ([5]; odorant 1-hexanol 100 μg): 6 ± 30%
- long-term activity (%) ([5]; odorant (−)-disparlure 100 ng): −10 ± 29%
- short-term activity (%) ([5]; odorant (−)-disparlure 100 ng, negative = enhancement): −322 ± 66%
- long-term activity (%) ([5]; odorant dispar alkene 1 μg): 52 ± 22%
- long-term activity (%) ([5]; odorant methyl eugenol 1 μg): 8 ± 8%
- long-term activity (%) [5, 8]: −126 ± 133%
- short-term activity (%) [5, 8]: −468 ± 231%
- trap catches in the field (gypsy moths): enhanced the trap catches significantly

SMILES: C=CCc1ccc(OC)c(OC)c1 [Me eugenol]
- Feeding Deterrence (%) ([2]; foliar, 17.5 h): 81.15%
- inhibition at 100 µg, 0.1 mg ([4]; Lymantria dispar, read-out: Activity (%): long-term inhibition (LTI), pure (+)-1 100 ng plume following mixed plume with 100 μg compound, mean ± S.E.): 8 ± 11%
- inhibition at 0.001 mg ([4]; Lymantria dispar, read-out: Activity (%): short-term inhibition (STI), mixed plume (+)-1 100 ng + compound 1 μg, negative = enhancement, mean ± S.E.): -1 ± 13%
- inhibition at 0.01 mg ([4]; Lymantria dispar, read-out: Activity (%): short-term inhibition (STI), mixed plume (+)-1 100 ng + compound 10 μg, negative = enhancement, mean ± S.E.): 76 ± 7%
- inhibition at 0.1 mg ([4]; Lymantria dispar, read-out: Activity (%): short-term inhibition (STI), mixed plume (+)-1 100 ng + compound 100 μg (puff v), negative = enhancement, mean ± S.E.): -152 ± 30%
- EAG response to the pure odorant (in words) [5]: same responses than clean air
- GC-EAD activity (male gypsy moth antenna): None
- trap catches in the field (gypsy moths): enhanced the trap catches significantly
